Measurements as given in patent US6906108B2, “Extracts of vetiver oil as repellent and toxicant to ants, ticks, and cockroaches” (Board of Supervisors of Louisiana State University and …, priority 2001, dated 2005).

Key:
[1] = test system: Imported red fire ants, Solenopsis invicta; assay: Fire ant three-chambered container bioassay with treated sand (repellency and mortality); format: in vivo; conditions: for Percent ants in the sand area after 15 min / Number of ants (% ± SE) in the sand area after 15 min (test after 40 days): mean ± SE; for Living ants found in the sand area over seven days: FIG. 1; for Living ants found in the sand area over 7 days: FIG. 3
Text: Nootkatone was purchased from a commercial source (Lancaster Synthesis Inc. Windham, N.H.). The source of the vetiver oil was The Good Scents Company (Oak Creek, Wis.). Three-chambered clear plastic containers (17×8×4 cm; Pioneer Packaging Co., North Dixon, Ky.) were used to test the effect of nootkatone and vetiver oil on the fire ants. Each rectangular container (17×8×4 cm) was divided into three equal compartments with two inner walls. A small hole (0.5 cm diameter) was melted at the bottom of each of the inner walls to permit fire ant access to all chambers. The top inner sides of the containers were coated with FLUON® (Northern Products, Inc., Woonsocket, R.I.) to prevent ants from escaping. Into the far left chamber, designated the “nest area,” was placed a 55 mm #2 Whatman filter paper circle (Whatman International, Maidstone, England) moistened with 0.5 ml ddH2O to serve as a substrate. For a food source, a second 55 mm #2 Whatman filter paper circle was moistened with 0.5 ml 10% sucrose solution and placed in the far right chamber (“feeding area”). In the middle chamber, 30 g of #4 fine blasting sand (Easy Crete, Inc., Greenwell Springs, La.) moistened with 3 ml ddH2O was added. The sand had previously been treated by mixing with ethanol only (the controls) or with ethanol and solutions of nootkatone or vetiver oil to obtain final concentrations of 10 μg/g sand and 100 μg/g sand. The treated sand was allowed to air-dry for 2 hr in a ventilated hood before placing into the container.
Imported red fire ants, Solenopsis invicta, were collected the day before beginning the experiment from two Louisiana colonies (Colony A and Colony B) whose nests were 50 m apart. For each container, 30 workers were placed in the nest area in a small Petri dish (3.5 cm diameter) with the lid closed initially. The total number of containers was 30; 15 for each colony. For each colony, three replicates were established for each of the following treatments: a control; 10 μg/g nootkatone ([…]), 100 μg/g nootkatone (“Noot-100”), 10 μg/g vetiver oil (“Vet-10”), […].
After the ants were acclimated, the lid on the Petri dish was removed. Ant behavior was observed during the first 15 min for the following: time for the first ant to cross into the middle chamber; time for the first ant to cross into the feeding area; and number of ants in the middle chamber after 5, 10, and 15 min. The plastic containers were kept closed with lids in a thermostatic chamber at 27° C. for one week. Each day at the same time, the numbers of live and dead ants in each chamber were noted.
To test for effectiveness of nootkatone and vetiver oil after the passage of time, the above experiment was repeated 40 days later with sand that had been treated at the same time as the above experiment. For 40 days, the sand had been maintained in separate chambers with non-hermetic lids in a dark room at room temperature. For this second experiment, fire ants were freshly collected from two different Louisiana colonies.
The number of ants, expressed as a percent of the total number in the container, found in the treated area after the first 15 minutes was compared using a two-way ANOVA followed by Newman-Keuls post-hoc test, considering the factors “colony” (A, B) and “treatment” (Control, Noot-100, Noot-10, Vet-100, Vet-10). Data for both the number of live and dead ants (expressed as percent of the total) during the seven days of the experiment were analyzed with 2-way ANOVA for repeated measures followed by Newman-Keuls post-hoc tests, considering the variables “colony” and “treatment” and the variable “day” as the repeated factor. All data were analyzed using Statistica 5.5 (1999 edition, Statsoft Inc., Tulsa, Okla.).

[2] = test system: cat fleas (Ctenocephalides felis (Bouche)); assay: Cat flea Petri dish filter paper bioassay (repellency and mortality); format: in vivo
Method: To test the effectiveness of nootkatone against fleas, cat fleas (Ctenocephalides felis (Bouche)) were collected from a flea colony at St. Gabriel, La.
Petri dishes (5 cm diameter and 1 cm height) were prepared by lining one half of the top and the bottom with a half circle of filter paper (55 mm), and lining the other half with a second half circle of filter paper. For the treated Petri dishes, 50 mg nootkatone or 100 mg REPEL® were dissolved in 0.5 ml ethanol. […] Ten replicate Petri dishes were used for each of the treatments. The ethanol solution was added to the filter paper on the top and bottom and dried for 10 min. To place the fleas in the Petri dishes, fleas were temporarily immobilized by placing them at −20° C. for 5 min. The number of fleas in each Petri dish varied: for the 10 control Petri dishes, the average number in each dish was 10.2, with a range of 4 to 23; for 0.2 mg nootkatone, the average number in each dish was 8.5, with a range of 5 to 18; for 1 mg nootkatone, the average number in each dish was 10.6, with a range of 6 to 21; for 2 mg nootkatone, the average number in each dish was 11.1, with a range of 9 to 15 (Fleas could be counted in only 9 Petri dishes; one had too many fleas to count); and for 2.76 mg Deet, the average number in each dish was 6.7, with a range of 5 to 9.
The number of fleas on each side of each Petri dish was counted at 1 hr, 2 hr, 3 hr, 4 hr, 24 hr, 48 hr, 72 hr, and 96 hr.

With `C=C(C)C1CCC2=CC(=O)CC(C)C2(C)C1` (centres unmarked) [nootkatone, 4,4a,5,6,7,8-hexahydro-6-isopropenyl-4,4a-dimethyl-2(3H)-naphthalone] the “Percent ants in the sand area after 15 min” value ([1]; 10 μg/g sand, sand treated 2 hr prior) was 23.89 ± 3.35 b %, the “Number of ants (% ± SE) in the sand area after 15 min (test after 40 days)” value ([1]; 10 μg/g sand, sand treated 40 days prior) was 26.11 ± 3.07 b % and the “Percent ants in the sand area after 15 min” value ([1]; 100 μg/g sand, sand treated 2 hr prior) was 13.33 ± 2.42 b %. For the same compound, the “Number of ants (% ± SE) in the sand area after 15 min (test after 40 days)” value ([1]; 100 μg/g sand, sand treated 40 days prior) was 13.89 ± 1.99 b %, the “Living ants found in the sand area over seven days” value ([1]; highest concentration (100 μg/g), sand treated 2 hr prior) was “Almost no ants” and the “Cumulative mortality over 7 days” value ([1]; highest concentration (100 μg/g), sand treated 2 hr prior, FIG. 2) was “highest”. For the same compound, the “Living ants found in the sand area over 7 days” value ([1]; highest concentration (100 μg/g), sand treated 40 days prior) was “Almost no ants”, the “Cumulative mortality over 7 days” value ([1]; highest concentration (100 μg/g), sand treated 40 days prior, FIG. 4) was “always greatest” and the “Cumulative mortality over 7 days” value ([1]; lower concentration (10 μg/g), sand treated 40 days prior, compared with highest concentration, FIG. 4) was “significantly lower”. The “Living ants found in the sand area over seven days” value ([1]; lowest concentration (10 μg/g), sand treated 2 hr prior, vs controls) was “substantially lower numbers of ants”, the “Living ants found in the sand area over 7 days” value ([1]; lowest concentration (10 μg/g), sand treated 40 days prior, vs controls) was “significantly lower numbers of ants” and the “Effectiveness forty days after the initial application” value ([1]; sand treated 40 days prior) was “still effective”. For the same compound, the “Percent Flea Mortality” value ([2]; 0.2 mg per dish, 1 hr) was 0%, the “Percent Flea Mortality” value ([2]; 0.2 mg per dish, 2 hr) was 0% and the “Percent Flea Mortality” value ([2]; 0.2 mg per dish, 3 hr) was 0%. The “Percent Flea Mortality” value ([2]; 0.2 mg per dish, 4 hr) was 0%, the “Percent Flea Mortality” value ([2]; 0.2 mg per dish, 24 hr) was 22% and the “Percent Flea Mortality” value ([2]; 0.2 mg per dish, 48 hr) was 45%. For the same compound, the “Percent Flea Mortality” value ([2]; 0.2 mg per dish, 72 hr) was 72%, the “Percent Flea Mortality” value ([2]; 0.2 mg per dish, 96 hr) was 79% and the “Repellent activity against fleas” value ([2]; 0.2 mg, 1 mg and 2 mg per dish) was “no repellent activity”. The “Toxicant activity against fleas” value ([2]; 0.2 mg, 1 mg and 2 mg per dish) was “only delayed toxicant activity”, the “Percent Flea Mortality” value ([2]; 1 mg per dish, 1 hr) was 0% and the “Percent Flea Mortality” value ([2]; 1 mg per dish, 2 hr) was 0%. For the same compound, the “Percent Flea Mortality” value ([2]; 1 mg per dish, 3 hr) was 16%, the “Percent Flea Mortality” value ([2]; 1 mg per dish, 4 hr) was 38% and the “Percent Flea Mortality” value ([2]; 1 mg per dish, 24 hr) was 66%. The “Percent Flea Mortality” value ([2]; 1 mg per dish, 48 hr) was 92%, the “Percent Flea Mortality” value ([2]; 1 mg per dish, 72 hr) was 89% and the “Percent Flea Mortality” value ([2]; 1 mg per dish, 96 hr) was 98%. For the same compound, the “Percent Flea Mortality” value ([2]; 2 mg per dish, 1 hr) was 0%, the “Percent Flea Mortality” value ([2]; 2 mg per dish, 2 hr) was 0% and the “Percent Flea Mortality” value ([2]; 2 mg per dish, 3 hr) was 26%. The “Percent Flea Mortality” value ([2]; 2 mg per dish, 4 hr) was 50%, the “Percent Flea Mortality” value ([2]; 2 mg per dish, 24 hr) was 77% and the “Percent Flea Mortality” value ([2]; 2 mg per dish, 48 hr) was 84%. For the same compound, the “Percent Flea Mortality” value ([2]; 2 mg per dish, 72 hr) was 91% and the “Percent Flea Mortality” value ([2]; 2 mg per dish, 96 hr) was 94%.
